Data from patent US20250144067A1, “PERSONALIZED STARVATION THERAPY FOR CANCER” (Faeth Therapeutics, Inc., priority 2021, published 2025).
Structures can show the parent of a compound that is named as a salt.

Assays:
[1] = system: NCI-H292 lung cancer cells; assay: FDA drug screening, complete media vs cholesterol-free media without statin (TABLE 1); format: cell-based, human
[2] = system: NCI-H292 lung cancer cells; assay: FDA drug screening, complete media vs cholesterol-free media with simvastatin (TABLE 2); format: cell-based, human; conditions: for Cholesterol-free media + simvastatin (0.04 μM) / Complete Media: NCI-H292 cells
[3] = NCI-H292 cells, cholesterol-free media without statin
[4] = complete vs cholesterol-free media, greater than 0 enhanced anti-cancer activity, about 0 neutral, below 0 antagonists
[5] = cholesterol-free media with simvastatin 0.04 μM, cell growth value in FDA drug screen
[6] = complete media, cell growth value in FDA drug screen
[7] = complete media minus cholesterol-free media + simvastatin, >0 enhanced anti-cancer activity, about 0 neutral, <0 antagonist
[8] = Complete minus Cholesterol-free, greater than 0 enhanced anti-cancer activity, about 0 neutral, below 0 antagonist
[9] = NCI-H292 cells, FDA drug library screen, cholesterol-free media without statin
[10] = NCI-H292 cells, FDA drug library screen, complete media
[11] = FDA drug library screen, cholesterol-free media with simvastatin 0.04 μM
[12] = FDA drug library screen, complete media
[13] = cholesterol-free media with simvastatin 0.04 μM, FDA drug library screen (TABLE 2)
[14] = complete media, FDA drug library screen (TABLE 2)
[15] = complete media minus cholesterol-free media + simvastatin (0.04 μM), >0 enhanced anti-cancer activity, about 0 neutral, <0 antagonist
[16] = complete media vs cholesterol-free media + simvastatin (0.04 μM), >0 enhanced anti-cancer activity, about 0 neutral, <0 antagonist
[17] = Complete minus Cholesterol-free, >0 enhanced anti-cancer activity, about 0 neutral, <0 antagonist
[18] = NCI-H292 cells, cholesterol-free media without statin, FDA drug library screen
[19] = NCI-H292 cells, complete media, FDA drug library screen
[20] = complete vs cholesterol-free media, >0 enhanced anti-cancer activity, about 0 neutral, <0 antagonist

## Nc1ccn(C[C@@H](CO)OCP(=O)(O)O)c(=O)n1 [Cidofovir]
[1]; [3]
  Cholesterol-free: 2.027
[1]; NCI-H292 cells, complete media
  Complete: 1.556
[1]; [4]
  Difference: −0.47
[2]; [5]
  Cholesterol-free media + simvastatin (0.04 μM): 0.9844
[2]; [6]
  Complete Media: 1.01
[2]; [7]
  Difference: 0.03

## [H]/N=C(/N)N/C(=N/[H])NCCc1ccccc1 [Phenformin (hydrochloride)]
[1]; [8]
  Difference: −0.12
[1]; [9]
  Cholesterol-free: 0.9657
[1]; [10]
  Complete: 0.8472
[2]; [11]
  Cholesterol-free media + simvastatin (0.04 μM): 1.171
[2]; [12]
  Complete Media: 1.373
[2]; [7]
  Difference: 0.20

## CCC(C)(C)c1ccc(CC(C)CN2C[C@@H](C)O[C@@H](C)C2)cc1 (stereo partly drawn) [Amorolfine (hydrochloride)]
[1]; [3]
  Cholesterol-free: 1.233
[1]; NCI-H292 cells, complete media
  Complete: 0.8449
[1]; [4]
  Difference: −0.39
[2]; [11]
  Cholesterol-free media + simvastatin (0.04 μM): 0.4078
[2]; [12]
  Complete Media: 1.021
[2]; [7]
  Difference: 0.61

## O=C(c1cc(Cc2n[nH]c(=O)c3ccccc23)ccc1F)N1CCN(C(=O)C2CC2)CC1 [Olaparib]
[1]; Complete minus Cholesterol-free, greater than 0 enhanced anti-cancer activity, about 0 neutral, below 0 antagonists
  Difference: −0.72
[1]; NCI-H292 cells in cholesterol-free media without statin
  Cholesterol-free: 1.436
[1]; NCI-H292 cells in complete media
  Complete: 0.7169
[2]; [13]
  Cholesterol-free media + simvastatin (0.04 μM): 0.8331
[2]; [14]
  Complete Media: 0.8347
[2]; [15]
  Difference: 0.00

## CCOC(=O)OC(C)OC(=O)[C@@H]1N2C(=O)[C@@H](NC(=O)[C@H](N)c3ccccc3)[C@H]2SC1(C)C (stereo partly drawn) [Bacampicillin (hydrochloride)]
[1]; [8]
  Difference: −0.18
[1]; [9]
  Cholesterol-free: 1.212
[1]; [10]
  Complete: 1.028
[2]; [11]
  Cholesterol-free media + simvastatin (0.04 μM): 1.049
[2]; [12]
  Complete Media: 0.956
[2]; [16]
  Difference: −0.09

## N[C@@H](CO)C(=O)O [L-Serine]
[1]; [3]
  Cholesterol-free: 1.3
[1]; NCI-H292 cells, complete media
  Complete: 0.9649
[1]; complete vs cholesterol-free media, […]
  Difference: −0.33
[2]; drug in cholesterol-free media with simvastatin 0.04 μM
  Cholesterol-free media + simvastatin (0.04 μM): 1.125
[2]; drug in complete media
  Complete Media: 0.9461
[2]; complete media vs cholesterol-free media + simvastatin (0.04 μM), […]
  Difference: −0.18

## CCOC(=O)c1ccc(C#Cc2ccc3c(c2)C(C)(C)CCS3)nc1 [Tazarotene]
[1]; [8]
  Difference: −0.11
[1]; [9]
  Cholesterol-free: 0.7313
[1]; [10]
  Complete: 0.6177
[2]; [13]
  Cholesterol-free media + simvastatin (0.04 μM): 0.9107
[2]; [14]
  Complete Media: 0.8646
[2]; [15]
  Difference: −0.05

## CC(=O)CCCCn1c(=O)c2c(ncn2C)n(C)c1=O [Pentoxifylline]
[1]; [17]
  Difference: −0.26
[1]; [3]
  Cholesterol-free: 1.143
[1]; NCI-H292 cells, complete media
  Complete: 0.8845
[2]; [13]
  Cholesterol-free media + simvastatin (0.04 μM): 0.9442
[2]; [14]
  Complete Media: 0.9268
[2]; [15]
  Difference: −0.02

## CN1CCN(c2ccc(C(=O)Nc3n[nH]c4ccc(Cc5cc(F)cc(F)c5)cc34)c(NC3CCOCC3)c2)CC1 [Entrectinib]
[1]; [17]
  Difference: −0.05
[1]; [18]
  Cholesterol-free: 0.4371
[1]; [19]
  Complete: 0.3827
[2]; [5]
  Cholesterol-free media + simvastatin (0.04 μM): 0.2455
[2]; [6]
  Complete Media: 0.2696
[2]; [7]
  Difference: 0.02

## COC(=O)c1cc(OC)c2c(c1-c1c(CO)cc(OC)c3c1OCO3)OCO2 [Bicyclol]
[1]; [18]
  Cholesterol-free: 0.552
[1]; [19]
  Complete: 0.7456
[1]; [20]
  Difference: 0.19
[2]; FDA library drug in cholesterol-free media with simvastatin 0.04 μM
  Cholesterol-free media + simvastatin (0.04 μM): 1.331
[2]; FDA library drug in complete media
  Complete Media: 1.025
[2]; [16]
  Difference: −0.31

## C[C@H](CCC(=O)O)[C@H]1CC[C@H]2[C@@H]3[C@H](O)C[C@@H]4C[C@H](O)CC[C@]4(C)[C@H]3CC[C@]12C [Chenodeoxycholic Acid]
[1]; [18]
  Cholesterol-free: 0.7972
[1]; [19]
  Complete: 1.211
[1]; [20]
  Difference: 0.41
[2]; [13]
  Cholesterol-free media + simvastatin (0.04 μM): 0.895
[2]; [14]
  Complete Media: 0.9061
[2]; [15]
  Difference: 0.01

## CCCN(CCc1cccs1)[C@H]1CCc2c(O)cccc2C1 [Rotigotine]
[1]; [17]
  Difference: 0.07
[1]; [18]
  Cholesterol-free: 0.9004
[1]; [19]
  Complete: 0.9685
[2]; [13]
  Cholesterol-free media + simvastatin (0.04 μM): 1.128
[2]; [14]
  Complete Media: 1.07
[2]; [15]
  Difference: −0.06

## CCn1nc(C(=O)O)c(=O)c2cc3c(cc21)OCO3 [Cinoxacin]
[1]; [17]
  Difference: −0.05
[1]; [18]
  Cholesterol-free: 0.9965
[1]; [19]
  Complete: 0.951
[2]; [5]
  Cholesterol-free media + simvastatin (0.04 μM): 0.9547
[2]; [6]
  Complete Media: 0.9782
[2]; [7]
  Difference: 0.02

## N=C(N)NC(=O)Cc1c(Cl)cccc1Cl [Guanfacine (hydrochloride)]
[1]; [18]
  Cholesterol-free: 0.9809
[1]; [19]
  Complete: 1.601
[1]; [20]
  Difference: 0.62
[2]; [11]
  Cholesterol-free media + simvastatin (0.04 μM): 1.401
[2]; [12]
  Complete Media: 1.965
[2]; [7]
  Difference: 0.56
